Patent US20110124033A1, “FLUORESCENCE BASED ASSAY TO DETECT SODIUM/CALCIUM EXCHANGER (NCX ) "REVERSE MODE" MODULATING COMPOUNDS” (SANOFI-AVENTIS, priority 2008, published 2011)

What was measured:
human NCX1 = human NCX1 (Homo sapiens, UniProt P32418); details: 5 mM nickel
Experimental: (§1) The cultured cells were detached by application of iced PBS (phosphate buffered saline) or Trypsin at least 18 hours prior to electrophysiological experiments and replated on cover slips.
(§2) Two bath solutions and pipette solutions were prepared for patch clamp experiments with the following composition:
(§3) 135 mM NMG, 5 mM MgCl2, 2 mM CaCl2, 4 mM EGTA, 30 mM HEPES, pH 7.4
(§4) 139 mM NMG, 5 mM MgCl2, 2 mM CaCl2, 30 mM HEPES, pH 7.4
(§5) 100 mM NaCl, 5 mM KCl, 2 mM CaCl2, 2 mM MgCl2, 2.1 mM EGTA, 35 mM TEA-Cl, 4 mM Mg-ATP, 0.5 mM Na-GTP,
(§6) 5.63 mM Phosphocreatine, 30 mM HEPES, […] Creatine Phosphokinase (70 ml pipette solution+3500 U filtered Creatine Phosphokinase, ad 100 ml pipette solution), pH 7.4 (NaOH)
(§7) To inhibit NCX currents, 5 mM nickel chloride was dissolved in bath solution “high calcium”. NCX activity was measured using the patch clamp technique in the whole cell configuration. The cells were clamped at room temperature (20-25° C.) to a holding potential of 0 mV. NCX currents were evoked by application of 2 mM external calcium (bathsolution “high calcium”) for 4 seconds (=control). Calcium application was repeated every 20 s. After 5 stimulations, inhibition by nickel was tested using the same protocol but activation with calcium in the presence of 5 mM nickel (5 replicates). Finally, 5 calcium pulses were applied again for washout studies. To characterize NCX currents, peak currents, transported charge and the time constant of signal decay were investigated and analyzed according to the report. All data are presented as mean±SEM.

human NCX3 = human NCX3 (Homo sapiens, UniProt P57103)
Chain of human NCX3 (P57103 31-924 isoform P57103-6 limits assumed): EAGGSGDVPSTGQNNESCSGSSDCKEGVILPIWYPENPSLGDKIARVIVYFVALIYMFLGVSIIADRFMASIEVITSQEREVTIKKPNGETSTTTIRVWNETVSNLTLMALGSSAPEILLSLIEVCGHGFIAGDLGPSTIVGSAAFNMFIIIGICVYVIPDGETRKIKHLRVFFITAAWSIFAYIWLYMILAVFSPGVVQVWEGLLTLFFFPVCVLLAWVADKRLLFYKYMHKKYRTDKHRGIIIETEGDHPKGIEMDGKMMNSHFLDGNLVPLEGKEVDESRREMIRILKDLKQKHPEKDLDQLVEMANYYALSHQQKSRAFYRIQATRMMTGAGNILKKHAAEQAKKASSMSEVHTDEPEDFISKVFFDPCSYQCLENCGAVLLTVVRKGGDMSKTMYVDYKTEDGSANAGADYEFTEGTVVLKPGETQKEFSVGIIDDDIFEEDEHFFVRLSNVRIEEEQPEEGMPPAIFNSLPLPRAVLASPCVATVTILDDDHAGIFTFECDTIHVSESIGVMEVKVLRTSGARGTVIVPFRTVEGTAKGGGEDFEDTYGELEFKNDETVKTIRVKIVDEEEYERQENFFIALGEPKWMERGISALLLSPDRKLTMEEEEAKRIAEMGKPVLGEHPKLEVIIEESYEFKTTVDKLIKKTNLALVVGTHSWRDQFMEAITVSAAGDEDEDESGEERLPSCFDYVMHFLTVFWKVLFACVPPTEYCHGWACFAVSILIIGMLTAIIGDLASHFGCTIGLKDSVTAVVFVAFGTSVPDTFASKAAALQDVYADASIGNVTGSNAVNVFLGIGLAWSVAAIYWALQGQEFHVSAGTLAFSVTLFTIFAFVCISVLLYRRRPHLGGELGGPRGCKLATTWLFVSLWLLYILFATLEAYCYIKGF
Experimental: as §1, §2, §3, §4, §5, §6, §7

human NCX2 = human NCX2 (Homo sapiens, UniProt Q9UPR5)
Chain of human NCX2 (Q9UPR5 21-921): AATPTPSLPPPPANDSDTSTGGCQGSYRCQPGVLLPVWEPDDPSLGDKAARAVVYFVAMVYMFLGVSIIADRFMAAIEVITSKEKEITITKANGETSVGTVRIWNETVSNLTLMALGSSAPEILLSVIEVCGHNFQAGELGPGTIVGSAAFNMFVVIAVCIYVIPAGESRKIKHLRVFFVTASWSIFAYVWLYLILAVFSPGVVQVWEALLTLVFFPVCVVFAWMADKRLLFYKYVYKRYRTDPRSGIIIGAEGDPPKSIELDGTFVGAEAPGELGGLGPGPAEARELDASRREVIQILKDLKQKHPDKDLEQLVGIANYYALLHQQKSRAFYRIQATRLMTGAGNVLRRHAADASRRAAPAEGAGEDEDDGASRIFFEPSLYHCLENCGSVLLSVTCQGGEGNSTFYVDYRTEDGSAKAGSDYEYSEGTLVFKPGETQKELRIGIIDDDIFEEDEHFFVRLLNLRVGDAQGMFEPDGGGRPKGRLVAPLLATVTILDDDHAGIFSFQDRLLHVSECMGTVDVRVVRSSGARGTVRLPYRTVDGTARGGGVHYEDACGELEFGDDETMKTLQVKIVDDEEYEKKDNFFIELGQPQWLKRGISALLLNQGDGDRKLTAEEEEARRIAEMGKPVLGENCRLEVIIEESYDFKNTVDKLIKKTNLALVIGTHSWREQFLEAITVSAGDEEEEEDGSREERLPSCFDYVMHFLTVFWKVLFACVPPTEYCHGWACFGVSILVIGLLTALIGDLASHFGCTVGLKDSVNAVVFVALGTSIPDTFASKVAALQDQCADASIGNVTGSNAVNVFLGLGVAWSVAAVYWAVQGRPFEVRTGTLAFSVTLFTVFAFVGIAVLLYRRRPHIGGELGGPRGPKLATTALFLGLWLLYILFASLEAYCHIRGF
Experimental: as §1, §2, §3, §4, §5, §6, §7

[1] = after 5 mM nickel, 5 calcium pulses for washout

[Cl][Ni][Cl] [nickel, nickel chloride]
Block of NCX1 outward currents (in words) (human NCX1): completely and reversible blocked
Block of NCX1 outward currents (human NCX1; reverse mode, 2 mM external Ca2+, holding potential 0 mV): 91.3±3.3%
Block of NCX3 outward currents (in words) (human NCX3; 5 mM nickel): completely and reversible blocked
Washout after nickel block, NCX3 currents (human NCX3; [1]): 111.5±2.4%
Block of NCX2 outward currents (in words) (human NCX2; 5 mM nickel): completely and reversible blocked
Washout after nickel block, NCX2 currents (human NCX2; [1]): 100.2±1.9%
